Experimental data from publication PMC5038272, “Glutamate Racemase Is the Primary Target of β-Chloro-D-Alanine in Mycobacterium tuberculosis” (Antimicrobial Agents and Chemotherapy, 2016).

Columns and labels:
[1] = target: T1, alanine racemase (BsAlr) (Bacillus subtilis, UniProt P10725); assay: time-dependent inactivation kinetics (kinact/Ki […] ^−[…] s^−[…]), partition ratio, dialysis; format: biochemical
T1 construct: gene alr1; recombinant BsAlr
T1 sequence (P10725 1-389): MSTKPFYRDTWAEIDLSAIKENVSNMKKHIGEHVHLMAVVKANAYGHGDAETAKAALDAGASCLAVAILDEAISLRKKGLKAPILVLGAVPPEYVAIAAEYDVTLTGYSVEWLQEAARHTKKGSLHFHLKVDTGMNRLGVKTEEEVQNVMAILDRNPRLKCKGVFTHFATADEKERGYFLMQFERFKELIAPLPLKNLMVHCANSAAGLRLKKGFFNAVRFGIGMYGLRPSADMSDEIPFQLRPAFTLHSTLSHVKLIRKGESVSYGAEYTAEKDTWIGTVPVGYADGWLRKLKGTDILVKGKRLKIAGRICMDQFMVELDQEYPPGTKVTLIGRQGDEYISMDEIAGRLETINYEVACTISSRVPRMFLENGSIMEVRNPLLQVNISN

[2] = target: T2, alanine racemase (MtAlr) (Mycobacterium tuberculosis, UniProt P9WQA9); assay: time-dependent inactivation kinetics (poor inactivator, kinact/Ki […] ^−[…] s^−[…]), partition ratio […] dialysis, intact ESI-MS; format: biochemical
T2 construct: gene alr

[3] = target: T3, alanine racemase (EcAlr) (Escherichia coli, UniProt P0A6B4); assay: time-dependent inactivation kinetics, partition ratio, dialysis, intact ESI-MS; format: biochemical
T3 construct: gene alr; recombinant EcAlr

[4] = target: T4, glutamate racemase (BsMurI) (Bacillus subtilis, UniProt P94556); assay: time-dependent inactivation kinetics (kinact/Ki), dialysis, intact ESI-MS (+[…]), tryptic LC-MS/MS; format: biochemical; conditions: read-out: time-dependent inactivation kinetics (kinact/Ki), dialysis, intact ESI-MS (+87)
T4 construct: gene racE; recombinant BsMurI

[5] = target: T4, glutamate racemase (BsMurI); assay: intact ESI-MS covalent adduct and tryptic LC-MS/MS; format: binding
[6] = target: T3, alanine racemase (EcAlr); assay: partition ratio of inactivation, purified enzyme; format: biochemical
[7] = target: T1, alanine racemase (BsAlr); assay: partition ratio of inactivation, purified enzyme; format: biochemical
[8] = target: T2, alanine racemase (MtAlr); assay: partition ratio of inactivation, purified enzyme; format: biochemical

T2 sequence (P9WQA9 whole entry): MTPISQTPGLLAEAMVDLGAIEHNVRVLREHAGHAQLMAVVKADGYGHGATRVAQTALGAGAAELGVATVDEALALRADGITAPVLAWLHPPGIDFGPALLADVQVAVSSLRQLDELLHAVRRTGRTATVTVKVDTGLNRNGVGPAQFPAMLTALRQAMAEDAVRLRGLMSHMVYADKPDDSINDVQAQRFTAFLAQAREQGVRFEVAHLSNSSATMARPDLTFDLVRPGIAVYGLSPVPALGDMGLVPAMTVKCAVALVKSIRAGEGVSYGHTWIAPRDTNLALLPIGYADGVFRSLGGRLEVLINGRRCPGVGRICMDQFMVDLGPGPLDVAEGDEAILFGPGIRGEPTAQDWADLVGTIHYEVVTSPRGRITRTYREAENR
T3 sequence (P0A6B4 whole entry): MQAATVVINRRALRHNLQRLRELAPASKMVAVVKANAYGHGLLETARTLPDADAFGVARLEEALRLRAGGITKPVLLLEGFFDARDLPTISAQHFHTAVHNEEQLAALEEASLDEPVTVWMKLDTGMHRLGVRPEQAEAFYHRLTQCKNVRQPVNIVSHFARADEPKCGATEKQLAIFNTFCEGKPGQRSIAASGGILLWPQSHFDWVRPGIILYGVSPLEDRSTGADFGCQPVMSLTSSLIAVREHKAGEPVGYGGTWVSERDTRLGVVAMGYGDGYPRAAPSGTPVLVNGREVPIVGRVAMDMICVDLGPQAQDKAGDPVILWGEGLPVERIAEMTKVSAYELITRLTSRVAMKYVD
T4 sequence (P94556 whole entry): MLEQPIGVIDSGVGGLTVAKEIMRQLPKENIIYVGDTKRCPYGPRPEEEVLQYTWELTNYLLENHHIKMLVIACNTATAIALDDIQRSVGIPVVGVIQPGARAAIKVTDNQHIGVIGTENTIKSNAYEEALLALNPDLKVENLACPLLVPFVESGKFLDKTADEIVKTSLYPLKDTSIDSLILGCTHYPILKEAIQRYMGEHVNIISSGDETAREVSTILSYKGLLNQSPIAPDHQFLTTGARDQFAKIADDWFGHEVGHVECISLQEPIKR

## N[C@H](CCl)C(=O)O [BCDA, β-chloro-D-alanine]
[1]
  KI (inactivation): 130 to 230 µM
[2]
  KI (inactivation): 130 to 230 µM
[3]
  KI (inactivation): 130 to 230 µM
[4]
  kinact/KI: 2.7 M⁻¹ s⁻¹

## N[C@@H](CCl)C(=O)O [BCLA, β-chloro-L-alanine]
[5]
  intact ESI-MS covalent adduct and tryptic LC-MS/MS: BCLA modified BsMurI predominantly at C74, the cysteine residue responsible for deprotonation of an incoming D-Glu substrate

## CC(=O)OC[C@@H](N)C(=O)O [OADS, O-acetyl–D-serine]
[6]
  partition ratio of inactivation, purified enzyme: partition ratios were compared for the structurally and mechanistically similar Alr inhibitor O-acetyl–D-serine (OADS)
[7]
  partition ratio of inactivation, purified enzyme: partition ratios were compared for the structurally and mechanistically similar Alr inhibitor O-acetyl–D-serine (OADS)
[8]
  partition ratio of inactivation, purified enzyme: partition ratios were compared for the structurally and mechanistically similar Alr inhibitor O-acetyl–D-serine (OADS)
